Laboratory results as given in patent publication US10066025B2, “Compositions and methods for detecting, treating and preventing diseases and disorders” (YALE UNIVERSITY, priority 2012, dated 2018).

Columns and labels:
Type in all cases: cell-based, human
HK-2 cells [1] = assay: HK-2 cell necrosis induced with 2 mM H2O2 (LDH release); details: at 2 and 4 hrs
Method: (§1) HK2 cells (human proximal tubular line) obtained from ATTC (Manassas, Va., USA) were cultured in DMEM/F12 supplemented with glutamine, 10% FBS and antibiotics, and were maintained at 37° C. in 5% CO2. Cells were exposed to cisplatin (20 μM) in the presence or absence of renalase for 24 hrs, and cell viability was assessed by the WST1 method (Roche Applied Science, Germany). Cells were then harvested in RIPA buffer (20 mM Tris-HCl pH 7.5, 150 mM NaCl, 1 mM Na2EDTA, 1 mM EGTA, 1% NP-40, 1% sodium deoxycholate, 2.5 mM sodium pyrophosphate, 1 mM β-glycerophosphate, 1 mM Na3VO4, 1 μg/ml leupeptin) supplemented with a protease and phosphatase inhibitor cocktail (Roche Applied Science, Germany). Proteins were separated by SDS-PAGE and Western blotting was carried out using the following antibodies: anti-renalase monoclonal (Desir et al., 2012, J Am Heart Assoc. 1:e002634; (Lee et al., 2013, J Am Soc Nephrol 24:445-455); anti caspase 3 (Cell Signaling Technology, MA, USA) and anti Bcl2 (Thermo Scientific, USA). Necrotic injury in HK-2 cells (ATCC, Manassas, Va.) was induced with exposure to 2 mM H2O2 for 2-8 hr and lactate dehydrogenase (LDH) released into cell culture media was measured as described using a commercial LDH assay kit (Promega, Madison, Wis.) (Lee and Emala, 2002, American journal of physiology. Renal physiology 282:F844-852).

HK-2 cells [2] = assay: HK-2 cell cisplatin toxicity (WST-1 viability, western blot); details: 20 μM cisplatin, 24 hrs
Method: Cultured HK-2 cells were incubated with 20 μM cisplatin for 24 hours with and without recombinant renalase. Renalase expression was examined by Western blot and cell viability (mitochondrial integrity) was determined spectrophotometrically using WST-1, a tetrazolium salt that is cleaved, by mitochondrial dehydrogenases of metabolically active and viable cells, to formazan (420-480 nm) (Boehringer Mannheim, Germany).
as §1

[3] = system: PI3K/AKT and MAPK pathways; assay: AKT and MAPK signaling and Bcl-2 expression by western blot
Method: FIG. 12, comprising FIGS. 12A through 12E, is a set of images and graphs showing renalase upregulates Bcl-2, activates PI3K/AKT, ERK, p38, and inhibits JNK. Western blot analysis; P− indicates phosphorylated, activated proteins; signals normalized to GAPDH loading control, then changes in protein phosphorylation (increase=activation, decrease=inhibition) from time 0 are calculated. FIG. 12A: HK-2 and HUVEC cells incubated with renalase for 24 hrs; FIG. 12B: Western blot of time course of AKT and MAPK signaling by renalase, HK-2 cells incubated with renalase for indicated time; changes over baseline in 4c-d are significant (p<0.05); FIG. 12C: Activation of AKT(T308), AKT(5473) and ERK; FIG. 12D: Inhibition of JNK; FIG. 12E: Marked and sustained (60 min) upregulation of p38 by renalase in the presence of cisplatin, western blot for time course, REN=renalase, CP=cisplatin.
MAPK signaling by renalase and renalase peptides. Western blot analysis; ERK: Extracellular signal-Regulated Kinase 1 and 2; JNK: c-Jun N-terminal Kinases; AKT: protein kinase B; p-indicates phosphorylated, activated proteins; representative blot, n=3 (FIG. 20A). Renalase activates AKT (FIG. 20B). Western blot analysis; P− indicates phosphorylated, activated proteins Representative blot, n=3 (FIG. 20B, left panel). Signals normalized to GAPDH loading control; n=3, change over baseline statistically significant (P<0.05) from 1-60 min for ERK, p38 and AKT (T308), and at 30 min only for AKT (S473) (FIG. 20B, right panel). ERK or AKT inhibition abrogates protective effect of RP-H220 (FIG. 20C). Plasma creatinine levels from mice subjected to sham-surgery or to renal ischemia and reperfusion (IR); Renalase WT mice were subjected to sham-surgery or to 30 min renal IR. For mice subjected to renal IR, RP-H220 or vehicle (saline) was injected 10 min prior to renal ischemia. Some animals were pretreated with either the ERK inhibitor PD98059 or the PI3K/AKT inhibitor wortmanin. (N=6-8 per group). *: P<0.05 vs. vehicle-treated mice subjected to sham-surgery; #: P<0.05 vs. vehicle-treated WT mice subjected to renal IR (FIG. 20C).

Substance: RP H220: histidine tagged RP-220, SEQ ID NO: 4, HHHHHHCIRFVSIDNKKRNIESSEIG (listed as Homo sapiens)
- necrosis induced with 2 mM H2O2 (HK-2 cells [1]): significantly reduced necrosis
- cell survival / protection against cisplatin toxicity (HK-2 cells [2]): improved HK-2 cell survival
- return of phosphorylation to baseline ([3]; HK-2 cells): ≤ 60 min
- time to detectable increased phosphorylation ([3]; HK-2 cells): ≤ 1 min
- JNK phosphorylation ([3]; at 60 min): decreased
